Residues, ends and D or L forms follow the SMILES beside them. *: point of attachment. Boc = CC(C)(C)OC(=O)*
| melting point | SMILES |
| --- | --- |
| 155 to 158 °C | O=c1ccc(-c2ccc(OCCCN3CCCCC3)nc2)n[nH]1 |
| 153 to 155 °C | CCOC1C=CC(Cl)=CC1(C)S(N)(=O)=O (configuration not stated) |
| 236 to 237 °C | CN(CCF)c1nc2cc(NC(=O)c3c(C(=O)N4CCC4)cnn3C)ccn2n1 |
| 75 to 77 °C | Cc1cc(N=CN(C)C)c(C)cc1Cc1cccc(C(F)(F)F)c1 |
| 98 °C | CN(C)CCCOc1ccccc1CC(=O)O |
| 193 to 196 °C | O=C1CC(c2cccc(-n3ccnc3)c2)=Nc2ccc(C#Cc3ccccc3)cc2N1 |
| 148 to 149 °C | Cc1c(NC(=O)c2ccc(OCC3CCOC3)cc2)ccc2cc(CNC3CCCC3)cnc12 (configuration not stated) |
| 105 °C | OCC(CO)(Cc1ccccc1)Cc1ccccc1 |
| 139 to 140 °C | O=C(O)c1cc(OCCCOc2ccc(OCc3ccccc3)cc2)cc(OCCCOc2ccc(OCc3ccccc3)cc2)c1 |
| 54 to 55 °C | Nc1ccc(CCC(=O)c2ccc(F)cc2)cc1 |
| 81 to 82 °C | OC1CCCC2Oc3ccccc3OC12 (configuration not stated) |
| 214 to 216 °C | O=C(c1ccccc1)c1c[nH]c2ccc(OCc3ccc4ccccc4n3)cc12 |
| 226 to 227 °C | COc1cc2ncnc(Nc3ccc(F)c(Cl)c3)c2cc1OCC1(C)COC1 |
| 141 to 143 °C | Nc1ccc2c(OCc3nc4ccccc4s3)cccc2c1 |
| 85 to 87 °C | COC(=O)C[C@H](O)C[C@H](O)C=Cc1c(-c2ccc(F)cc2)c(-c2ccccc2)c(C(=O)Nc2cccc(S(N)(=O)=O)c2)n1C(C)C |
| > 250 °C | COC(=O)c1cc(C(=O)NN2CCOCC2)c2cc(Cc3ccc(F)cc3)cnc2c1O |
| 194 to 197 °C | CC(NC(=O)C(Cc1ccc(O)cc1)NC(=O)OC(C)(C)C)C(=O)NCC(=O)O (stereo not drawn) (Boc-Tyr-Ala-Gly-OH; configuration not given here) |

| melting point | SMILES |
| --- | --- |
| 234 to 236 °C | CN1Cc2c(cc3ccc4c(c3c2-c2ccc3c(c2)OCO3)OCO4)C1=O |
| 90 °C | COc1ccc(N(CCC(=O)O)C(=O)Cl)cc1 |
| 178 to 179 °C | CC(C)CCCC(C)C1CC(O)C2=C3C(O)CC4CC(OC(=O)c5ccccc5)CCC4(C)C3CCC21C (configuration not stated) |
| 127 to 128 °C | Cc1cc(C(O)(c2ccc(OC(F)(F)F)cc2)C(F)(F)F)ccc1N (configuration not stated) |
| 144 to 146 °C | COc1ccc(CCNS(=O)(=O)c2ccc(N)cc2)cc1 |
| 115 to 117 °C | O=C(O)C1(c2cn3nc(NCCCN4CCC(OC(c5ccccc5)c5ccccc5)CC4)ccc3n2)CC1 |
| 145 to 147 °C | CS(=O)(=O)c1ccc(-c2oc3ccccc3c(=O)c2-c2ccc(Cl)cc2)cc1 |
| 294 to 295 °C | Cc1ccc(S(=O)(=O)c2c(N)c3nccn3c3nccnc23)cc1 |
| 209 to 211 °C | COc1ccc(OC)c(-c2cn(C)cc(C#N)c2=O)c1 |
| 60 to 61 °C | CC(C)COC1=C(Cc2ccc(Cl)cc2)C(=O)CC(C)(C)C1 |
| 219 to 220 °C | Cc1c(C(C)(C)C(=O)O)nc2ccc(NCCCN3CCC(OC(c4ccccc4)c4ccccc4)CC3)nn12 |
| 150 to 151 °C | COc1cc(C2(O)CCOCC2)ccc1OCc1ccc2ccccc2c1 |
| 92 to 95 °C | CC(C)Nn1nnnc1S |
| 207 °C | CC(=O)Nc1c(I)c(NC(C)=O)c(I)c(C(=O)OCC(O)CO)c1I (configuration not stated) |
| 150 to 151 °C | N#Cc1ccc2[nH]nc(-c3ccccc3)c2c1 |
| > 300 °C | O=C1Nc2cc(NC(=O)c3c[nH]cc(-c4cccc(Cl)c4)c3=O)ccc2/C1=C/c1ccc[nH]1 |
| 188 °C | CC1=C(C(=O)OCCOc2ccc(C(=O)c3ccccc3)c(O)c2)CC(C(=O)OCCOc2ccc(C(=O)c3ccccc3)c(O)c2)=C(C)N1 |

| SMILES | melting point |
| --- | --- |
| Cc1[nH]c2cccc3c2c1CC1C3CC(N)CN1C (configuration not stated) | 240 °C |
| CCCNCc1nc(-c2ncn3c2[C@@H]2CCN2C(=O)c2c(Cl)cccc2-3)no1 | 237 to 239 °C |
| COc1ccc(-c2cn([C@H]3CN4CCC3CC4)nn2)cc1 | 122 °C |

Source: a melting point compilation (Tetko et al.; mined from patent text by program, amines drawn as free bases though some values may be those of a salt)
